# Assay results reported in patent US9140688B2, “Sperm staining and sorting methods” (INGURAN, LLC, priority 2011, dated 2015).
# Legend:
# [1] = system: membrane compromised bovine sperm stained with Hoechst 33342; test: Dead quenching: dead gate intensity divided by live gate intensity, flow cytometry of stained bovine sperm; type: cell-based; details: for Dead Intensity (dead gate intensity divided by live gate intensity): Ex 5
# Outline: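 Bovine sperm stained with Hoechst 33342 (48–64 μM effective) in pH 7.4 TALP at 34° C for 60 min, then mixed 1:1 with pH 5.60 TALP containing quenching dye and held ~30 min at room temperature. Read on a MoFlo SX sorter; value is dead gate intensity divided by live gate intensity as a percentage, lower meaning more quenching.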
# [2] = system: X- and Y-chromosome bearing bovine sperm stained with Hoechst 33342; test: Split quality: height of peak divided by height of valley (PV), flow cytometry of stained bovine sperm; type: cell-based; details: for Height of Peak/Height of Valley: Ex 5
# [3] = solvent water; shorter-wavelength local maximum; cited from earlier work
# [4] = dye 62.5 μM, Hoechst 12 μL/2 mL
# [5] = dye 62.5 μM, Hoechst 14 μL/2 mL
# [6] = dye 62.5 μM, Hoechst 16 μL/2 mL
# [7] = Ex 6, dye 62.5 μM, resulting pH 6.70, Hoechst 48 μM
smiles,measurement,setting,value
"COc1cc(S(=O)(=O)O)c(C)cc1N=Nc1c(O)ccc2cc(S(=O)(=O)O)ccc12 [Red 40, 6-hydroxy-5-[(2-methoxy-5-methyl-4-sulfophenyl)azo]-2-naphthalenesulfonic acid, reference compound]",Dead Intensity (dead gate intensity divided by live gate intensity),"[1]; dye 25 μM, Average of Hoechst levels",68%
same,Dead Intensity (dead gate intensity divided by live gate intensity),"[1]; dye 25 μM, Hoechst 12 μL/2 mL",68%
same,Dead Intensity (dead gate intensity divided by live gate intensity),"[1]; dye 25 μM, Hoechst 14 μL/2 mL",72%
same,Dead Intensity (dead gate intensity divided by live gate intensity),"[1]; dye 25 μM, Hoechst 16 μL/2 mL",65%
same,Dead Intensity (dead gate intensity divided by live gate intensity),"[1]; dye 62.5 μM, Average of Hoechst levels",52%
same,Dead Intensity (dead gate intensity divided by live gate intensity),[1]; [4],53%
same,Dead Intensity (dead gate intensity divided by live gate intensity),[1]; [5],53%
same,Dead Intensity (dead gate intensity divided by live gate intensity),[1]; [6],50%
same,Dead Intensity (dead gate intensity divided by live gate intensity),"[1]; dye 125 μM, Average of Hoechst levels",38%
same,Dead Intensity (dead gate intensity divided by live gate intensity),"[1]; dye 125 μM, Hoechst 12 μL/2 mL",37%
same,Dead Intensity (dead gate intensity divided by live gate intensity),"[1]; dye 125 μM, Hoechst 14 μL/2 mL",41%
same,Dead Intensity (dead gate intensity divided by live gate intensity),"[1]; dye 125 μM, Hoechst 16 μL/2 mL",35%
same,Intensity (dead gate),[1]; [7],53%
same,Height of Peak/Height of Valley,"[2]; dye 25 μM, Average of 12 and 14 μL series",2.00
same,Height of Peak/Height of Valley,"[2]; dye 25 μM, Hoechst 12 μL/2 mL",2.05
same,Height of Peak/Height of Valley,"[2]; dye 25 μM, Hoechst 14 μL/2 mL",1.94
same,Height of Peak/Height of Valley,"[2]; dye 25 μM, Hoechst 16 μL/2 mL",1.00
same,Height of Peak/Height of Valley,"[2]; dye 62.5 μM, Average of 12 and 14 μL series",1.64
same,Height of Peak/Height of Valley,[2]; [4],1.65
same,Height of Peak/Height of Valley,[2]; [5],1.62
same,Height of Peak/Height of Valley,[2]; [6],1.00
same,Height of Peak/Height of Valley,"[2]; dye 125 μM, Average of 12 and 14 μL series",1.88
same,Height of Peak/Height of Valley,"[2]; dye 125 μM, Hoechst 12 μL/2 mL",1.75
same,Height of Peak/Height of Valley,"[2]; dye 125 μM, Hoechst 14 μL/2 mL",2.00
same,Height of Peak/Height of Valley,"[2]; dye 125 μM, Hoechst 16 μL/2 mL",1.21
same,PV,[2]; [7],1.00
same,PV,"[2]; Ex 8, Bull 1, Hoechst 60 μM, R40 20 μM alone",1.62
same,PV,"[2]; Ex 8, Bull 2, Hoechst 44 μM, R40 20 μM alone",1.54
same,PV,"[2]; Ex 9, Bull 3, Hoechst 60 μM, R40 50 μM, R3 0 μM",1.44
same,Expected Absorption Maxima,[3],505 nm
